From a melting point compilation (Tetko et al.; mined from patent text by program, amines drawn as free bases though some values may be those of a salt)
Residues, ends and D or L forms follow the SMILES beside them. *: point of attachment. Boc = CC(C)(C)OC(=O)*; OBn = c1ccc(CO*)cc1; βAla = NCCC(=O)O

Row | Structure (SMILES) | melting point [°C]
1 | CC1=NC2(O)c3cc(-c4ccc(C(F)(F)F)cc4)ccc3CC2S1 (stereo not given) | 213 to 217
2 | CCOc1nn(-c2ccc(C(F)(F)F)cn2)cc1CCCOc1cc(CCC(=O)O)cc(OC)c1 | 99 to 100
3 | CN1C(=O)SC(=C(CO)c2cccc3ccccc23)C1=O | 112 to 113
4 | NC(=O)N(O)CCNC(=O)c1cccc(Oc2ccc(Cl)c(Cl)c2)c1 | 153 to 156
5 | CC(=O)NCC1CN(c2ccc(N3CCC(=CC#N)C(F)C3)c(F)c2)C(=O)O1 (stereo not given) | 138 to 140
6 | O=C(OC(c1ccccc1)c1ccccc1)C1=CSC2C(=Cc3cn4c(n3)SCC4)C(=O)N12 (stereo not given) | 160 to 161
7 | CN(C)C=CC(=O)c1cccc(OCC(O)CN2CCN(c3ccc(Cl)cc3)CC2)c1 (stereo not given) | 144 to 145
8 | N#Cc1cnc2cc(-c3ccc(CO)cc3)sc2c1Nc1ccc(Oc2ccccc2)cc1 | 225 to 228
9 | Fc1cccc(F)c1-c1ncc(-c2ccc(-c3ccc(OC(F)(F)F)cc3)cc2)nn1 | 225 to 230
10 | OCCNc1nc(NCc2ccccc2)c2ncc(Nc3ncncn3)cc2n1 | 202 to 203
11 | Cc1cc(C(=CC(=O)N2CCOCC2)c2ccccc2)ccc1OS(=O)(=O)N(C)C | 108
12 | CNC(=O)NC1CCC(OC)c2sccc21 (stereo not given) | 152 to 159
13 | Oc1cccc2c(CCc3ccccc3)ccnc12 | 102 to 103
14 | Cc1ccc(S(=O)(=O)N2Cc3cncnc3-c3ccc(Cl)cc3C2c2ccccc2Cl)cc1 (stereo not given) | 200 to 201
15 | COc1c(F)c(F)c(C2=CC(=O)NC2=O)c(F)c1F | 91
16 | CCn1c2ccc(C)cc2c2c3ccccc3ccc21 | 69 to 74
17 | Cc1cc(F)c(-n2c(=O)oc3c(c2=O)CCC3)cc1OC(C)C | 131 to 133
18 | CCCn1c(=O)c2[nH]c(/C=C/c3ccccc3F)nc2n(CCC)c1=O | 259
19 | CCCC1=C(C(=O)OCC)C(c2c(OC)ccc3ccccc23)c2c[nH]nc2N1 (stereo not given) | 188 to 191
20 | CCCCCCCCC(O)Cc1ccc(OCc2ccccc2)c(OCc2ccccc2)c1 (stereo not given) | 55 to 57
21 | CC(C)OCCNC(=O)c1n[nH]cc1NC(=O)c1ccccc1 | 121 to 122
22 | O=c1cc(CO)oc2cc(S)ccc12 | 139 to 140
23 | N=C1N(Cc2ccc(Cl)nc2)CCN1[N+](=O)[O-] | 81
24 | CC(C)CC(C(=O)O)c1cc(Cl)c(-c2ccc(Cl)cc2)c(OCC2CC2)c1 (stereo not given) | 52 to 53

Row | Structure (SMILES) | melting point [°C]
25 | Cc1ccc2ncc(CSc3ccc(N)cc3)n2c1 | 128 to 129
26 | CCOC(CBr)(OCC)c1ccc(OC)cc1 | 55 to 56
27 | CCOC(=O)C(CO)NC(=O)C(CC(=O)OCc1ccccc1)NC(=O)CCNC(=O)OC(C)(C)C (stereo not given) ({Boc-βAla}-Asp(OBn)-Ser-OEt; configuration not given here) | 132 to 134
28 | Cc1cc(F)ccc1-c1cc(N2CCSCC2)ncc1C(=O)NC(C)(C)C | 164 to 169
29 | CS(=O)c1ccc(-c2nn(Cc3ccc(F)cc3F)c(=O)cc2-c2ccc(Cl)cc2)cc1 (stereo not given) | 156
30 | CCOC(=O)c1cc(NCc2c(C)cccc2C)c2nc(COC)n(C)c2c1 | 134 to 135
31 | CCOC1=C(C(=O)N(C)C)S(=O)(=O)N=C1N | 221 to 223
32 | COC(=O)c1c(-c2nccn2C)c2cnc(N3CCC[C@H]3CO)nc2n(Cc2ccc(OC)c(Cl)c2)c1=O | 142 to 145
33 | CCOC(=NC(=O)CCl)N1Cc2ccccc2-c2ccccc2C1 | 87 to 89
34 | CC(C)(C)c1cc(C=C(C#N)C#N)cc(I)c1O | 188
35 | CC(C)(C)NCC(O)COc1ccc(-c2noc3sccc23)cc1 (stereo not given) | 118
36 | O=C(O)Cc1ccc2c(c1)C(=O)Cc1ccccc1S2 | 166 to 167
37 | ON=C(c1ccccc1)c1ccc(OCCCOc2ccc(C(=NO)c3ccccc3)cc2)cc1 | 205 to 208
38 | CSC(=CC(=O)C(F)(F)F)SC | 97
39 | O=c1[nH]c2cc(O)ccc2n1CCN1CCN(c2cccc(C(F)(F)F)c2)CC1 | 275
40 | OC(CNC1CCc2ccccc2C1)COc1cccc(C(F)(F)F)c1 (stereo not given) | 84 to 89
41 | Nc1c2c(=O)n3c(nc2nn1CC(F)(F)F)SCC3 | 285 to 288
42 | N#Cc1cc(-c2nc3cncnc3s2)ccc1Oc1ccccc1O | 255 to 256
43 | CCOC(=O)CCN1CCN(CC2CN(c3ccc(C(=N)NC(=O)c4ccccc4)cc3)C(=O)O2)CC1 (stereo not given) | 163 to 164
44 | COc1cc(NC(=O)N(Cc2ccccc2)C2CCCCC2)c(OC(C)=O)c(C(C)(C)C)c1 | 129 to 132
45 | CCOC(=O)C1=Cc2cc(Cl)cnc2NC1C(F)(F)F (stereo not given) | 180 to 182
46 | CNc1cc(N2CCN(C(=O)N3CCN(S(=O)(=O)c4ccc(C(F)(F)F)cc4)CC3)CC2)ncn1 | 230 to 231
47 | CCNc1nc(Br)cn2c(Br)cnc12 | 131
48 | c1ccc(-c2nc3c([nH]2)Cc2ccccc2-3)cc1 | 141 to 143

Row | Structure (SMILES) | melting point [°C]
49 | CC(C)(C)C1(COc2ccc(Cl)cc2)OS(=O)NC1=O (stereo not given) | 132 to 134
50 | CCOC(=O)C1=C(N)N=C(N)C(C)(C(=O)OCC)C1c1cccc([N+](=O)[O-])c1 (stereo not given) | 142
51 | Cc1c[nH]c2c1C(=O)CC(c1ccccc1F)C2 (stereo not given) | 198 to 200
52 | COc1ccc(CCN(CCc2ccc(-c3ccccc3)cc2)C(=O)CCCCC(N)=O)cc1OC | 177 to 179
53 | O=C1c2cc3ccccc3cc2OC12CC2 | 127 to 129
54 | CC(C)C(=O)N[C@@H]1CCc2c(c3cc(C#N)ccc3n2Cc2cccc(F)c2)C1 | 223 to 225
55 | CCNC(=S)NCc1cccc2c1C(=O)N(C1CCC(=O)NC1=O)C2=O (stereo not given) | 154 to 156
56 | CC(=O)OC(C(Oc1ccc(Cl)cc1)n1ccnc1)C(C)(C)C (stereo not given) | 81 to 91
57 | CCCn1c(=O)cc2n(c1=O)CC(CSc1ccccc1)S2 (stereo not given) | 88 to 89
58 | O=C(O)C1Cc2cc3c(-c4ccccc4)noc3c(Cl)c2O1 (stereo not given) | 214 to 215
59 | Cc1cc(-c2ccc(Cl)cc2)nc2c(C(=O)Nc3cccc(S(C)(=O)=O)c3)cnn12 | 250 to 251
60 | O=C(OCCN1CCN(c2cccc(C(F)(F)F)c2)CC1)c1cc(F)ccc1Nc1ccnc2cc(Cl)ccc12 | 113
61 | O=C(c1ccc(F)cc1)C1CCN(CCn2c(=O)[nH]c3sccc3c2=O)CC1 | 231 to 235
62 | CC(C)(C)OC(=O)Nc1cc(N2CCC(O)CC2)c(I)cc1[N+](=O)[O-] | 58 to 60
63 | COc1ccc(C(CC(=O)O)N2C(=O)c3cccc([N+](=O)[O-])c3C2=O)cc1 (stereo not given) | 178 to 180
64 | CCOC(=O)CNC(=O)OCc1ccc(OC(C)=O)c(OC)c1 | 62 to 64
65 | CC1c2ccccc2-c2[nH]c3ccccc3c21 (stereo not given) | 153 to 155
66 | CCCCCCCCCCCCCC(=O)O[C@H](CCCCCCCCCCC)CC(=O)NC(=O)[C@@H](N)CO | 126 to 130
67 | Cc1cc(NC(=O)CC(C)(C)C)c2c(c1)C(c1ccc(C(C)C)cc1)C(C)(C)O2 (stereo not given) | 64 to 68
68 | CCOC(=O)C(=O)Nc1c([N+](=O)[O-])sc2cc(Cl)ccc12 | 139 to 141
69 | CCOC(=O)c1ccc(OCCCCCCCc2cc(C)no2)cc1 | 60 to 61
70 | CC(=O)NC1(CCc2ccccc2)CCOC(=O)CC1 (stereo not given) | 165 to 167
